# Experimental data from patent publication US20240350411A1, “METHODS FOR PREPARING LIPOSOMAL FORMULATIONS” (Celator Pharmaceuticals, Inc., priority 2021, published 2024).
# Assay: Removal of free drug during purification with acidified sugar solution: concentration in the permeate
# Excerpt: Without being bound by theory, it is surmised that encapsulation of therapeutic agents into liposomes results in some portion of the therapeutic agent becoming associated with or trapped within the lipid bilayer, particularly when encapsulating therapeutic agents with low water solubility or high hydrophobicity. Purifying the liposomal composition with an acidified aqueous solution may remove therapeutic agent that is associated with or trapped within the lipid bilayer, resulting in a liposome formulation that contains a therapeutic agent that is only encapsulated within the internal medium of the liposomes. […] As the washing volume increases—that is, as the liposomal composition is washed with an increasing amount of acidified aqueous sugar solution—the amount of Compound 9 detected in the permeate peaks, and then decreases. The peak is thought to result from a rapid release of Compound 9 that is associated with or trapped in the lipid bilayer into the acidified aqueous sugar solution. […] In other words, purifying the liposomal composition with an acidified aqueous solution may allow for any therapeutic agent merely associated with or trapped within the lipid bilayer to release into the acidified aqueous solution, thus preventing a rapid release from occurring in the bloodstream of a patient upon administration.
# A formulation of liposomes containing Compound 9 was prepared and purified as described in Examples 1A, 1B, and 2. The liposome formulation comprised DSPC/Cholesterol/PEGylated (58/40/2 mol %) and used 250 mM AS as the loading aid.
# During the purification of the formulation using tangential flow filtration, the concentration of Compound 9 in the permeate was measured, as shown below in Table 7. FIG. 3 depicts the concentration of Compound 9 in the permeate vs. the washing volume.
smiles,measurement,setting,value
CCN(CC)C1CCN(CC[C@H](CSc2ccccc2)Nc2ccc(S(=O)(=O)NC(=O)c3ccc(N4CCN(CC5=C(c6ccc(Cl)cc6)CCC(C)(C)C5)CC4)cc3)cc2S(=O)(=O)C(F)(F)F)CC1 [Compound 9],Compound 9 detected in the permeate,after washing with about 300-400 mL of acidified aqueous sugar solution (FIG. 3),little
same,Concentration of Compound x in the permeate,washing volume 1×,7100 ng/mL
same,Concentration of Compound x in the permeate,washing volume 3×,15900 ng/mL
same,Concentration of Compound x in the permeate,washing volume 6×,3500 ng/mL
same,Concentration of Compound x in the permeate,washing volume 9×,1400 ng/mL
same,Concentration of Compound x in the permeate,washing volume 12×,1000 ng/mL
